According to patent US20060287251A1, “Combination therapy for glycaemic control” (priority 2003, published 2006):

Test system: diabetic Zucker (fa/fa) rats
Assay: Glutaminyl thiazolidine and Metformin alone or in combination, glycemic control in diabetic Zucker (fa/fa) rats
Format: in vivo, rat
Conditions: b.i.d. oral; for reactive and absolute G-AUC: p<0.05 vs. Control; for glucose tolerance curve in the OGTT: vs. Control
Method: Ten or eleven weeks old male Zucker (fa/fa) rats were purchased from Charles River (Sulzfeld, Germany). Animals were kept under standardized semi-barrier conditions with controlled temperature (22±2° C.) on a 12/12 hours light/dark cycle (light on at 06:00 a.m.). Standard pelleted chow (ssniff®, Soest, Germany) and tap water acidified with HCl were allowed ad libitum. At the age of 12 weeks the animals (N=42) were divided in random order into six experimental groups to be medicated. Definition of the Experimental Groups for the Medications (GT=glutaminyl thiazolidine):
The single or combined doses per kg b.w. were solved in 5 mL dist. water for oral administration.
The study was started with the 12 to 13 weeks old Zucker (fa/fa) rats. At the beginning of the study an OGTT was performed (2 g glucose/kg body weight (b.w.); administration volume: 5 mL/kg of a 40% solution; B. Braun Melsungen, Melsungen, Germany) after a 16 h fast. […] Dosing was performed at t=5 min before OGTT by gavage.
Blood samples were taken from tail veins to measure blood glucose and serum insulin at −15, ±0 min, 15, 30, 60, 90, 120 and 180 min (the latter time without insulin samples) with respect to time of glucose administration.
After the first OGTT the animals in the groups were dosed twice daily with the respective drugs at 08:00 AM and at 04:00 PM, respectively:
During the two weeks of medication morning blood glucose was measured before the 08:00 AM medication at Monday, Wednesday and Friday.
Food intake was determined every day during the time of medication.
All the animals were weighted three times per week at 7:30 AM.
A second OGTT was performed after two weeks of medication (Day 15). The food was withdrawn at 04:00 PM the day before (16 h fast). The OGTT was performed with pre-medication at −5 min and oral glucose loading at ±0 min. Blood samples were taken from tail veins to measure blood glucose, and serum insuline at −15, ±0 min, 15, 30, 60, 90, 120 and 180 min (the latter time without insulin samples).
Glycated hemoglobin was measured before (Day −7) and on Day 18.
Glucose-For determination of glucose 20 μL blood were collected at −15, ±0 min (before OGTT) and 15, 30, 60, 90, 120 and 180 min post OGTT.
Insulin-Insulin concentrations were assayed by the antibody RIA method (Linco Research, Inc. St. Charles, Mo., USA).
Glycated haemoglobin-Percentage of glycated hemoglobin A (HbA1c) was estimated with the “DCA 2000R Hämoglobin A1c-Reagenz kit”(Bayer Vital GmbH, Fernwald, Germany).
The body weight was measured using a platform balance (Scaltec, Heiligenstadt, Germany).
Mixed venous blood samples from the tails were collected into 20 μL glass capillaries, which were placed in standard tubes filled with 1 ml solution for hemolysis (blood glucose measurement) and in sample tubes for serum insulin (50 μL blood).
Raw data of glucose analysis were provided by IDK to probiodrug in Excel format as soon as possible. Data for each drug and each parameter (glucose, insulin) were summarized by descriptive statistics (mean, SEM). […] Changes from baseline were calculated and summarized by descriptive statistic.

[1] = GT 60 mg/kg b.w. and/or Metformin 125 mg/kg b.w. (Met-low)
[2] = Metformin 300 mg/kg b.w. (Met-high) with or without GT 60 mg/kg b.w.

## CN(C)C(=N)N=C(N)N [Metformin, 1,1-Dimethylbiguanidine]
[1]
  reactive and absolute G-AUC: significantly reduced
  glucose tolerance curve in the OGTT: significantly improved glucose tolerance curves
[2]
  reactive and absolute G-AUC: once more lowered
  glucose tolerance curve in the OGTT: further improvement of glucose tolerance curve
